Key:
CCRF-CEM = type: cell-based; details: Homo sapiens, one dose 10^-5 M, 48 h
HL-60(TB) = type: cell-based; details: Homo sapiens, one dose 10^-5 M, 48 h
K-562 = type: cell-based; details: Homo sapiens, K562, one dose 10^-5 M, 48 h
MOLT-4 = type: cell-based; details: Homo sapiens, one dose 10^-5 M, 48 h, read-out: % growth
RPMI-8226 = type: cell-based; details: Homo sapiens, one dose 10^-5 M, 48 h
SR = type: cell-based; details: Homo sapiens, one dose 10^-5 M, 48 h
A549/ATCC = type: cell-based; details: Homo sapiens, one dose 10^-5 M, 48 h
EKVX = type: cell-based; details: Homo sapiens, one dose 10^-5 M, 48 h
HOP-62 = type: cell-based; details: Homo sapiens, one dose 10^-5 M, 48 h
HOP-92 = type: cell-based; details: Homo sapiens, one dose 10^-5 M, 48 h
NCI-H226 = type: cell-based; details: Homo sapiens, one dose 10^-5 M, 48 h
NCI-H23 = type: cell-based; details: Homo sapiens, one dose 10^-5 M, 48 h, read-out: % growth
NCI-H460 = type: cell-based; details: Homo sapiens, one dose 10^-5 M, 48 h, read-out: % growth
NCI-H522 = type: cell-based; details: Homo sapiens, one dose 10^-5 M, 48 h
COLO 205 = type: cell-based; details: Homo sapiens, one dose 10^-5 M, 48 h
HCC-2998 = type: cell-based; details: Homo sapiens, one dose 10^-5 M, 48 h
HCT-116 = type: cell-based; details: Homo sapiens, one dose 10^-5 M, 48 h, read-out: % growth
HCT-15 = type: cell-based; details: Homo sapiens, one dose 10^-5 M, 48 h, read-out: % growth
HT29 = type: cell-based; details: Homo sapiens, HT-29, one dose 10^-5 M, 48 h
KM12 = type: cell-based; details: Homo sapiens, one dose 10^-5 M, 48 h
SW-620 = type: cell-based; details: Homo sapiens, one dose 10^-5 M, 48 h
SF-268 = type: cell-based; details: Homo sapiens, one dose 10^-5 M, 48 h, read-out: % growth
SF-295 = type: cell-based; details: Homo sapiens, one dose 10^-5 M, 48 h
SF-539 = type: cell-based; details: Homo sapiens, one dose 10^-5 M, 48 h
SNB-19 = type: cell-based; details: Homo sapiens, one dose 10^-5 M, 48 h, read-out: % growth
U251 = type: cell-based; details: Homo sapiens, U-251, one dose 10^-5 M, 48 h
LOX IMVI = type: cell-based; details: Homo sapiens, one dose 10^-5 M, 48 h, read-out: % growth
MALME-3M = type: cell-based; details: Homo sapiens, one dose 10^-5 M, 48 h
M14 = type: cell-based; details: Homo sapiens, one dose 10^-5 M, 48 h
MDA-MB-435 = type: cell-based; details: Homo sapiens, one dose 10^-5 M, 48 h, read-out: % growth
SK-MEL-2 = type: cell-based; details: Homo sapiens, one dose 10^-5 M, 48 h
SK-MEL-28 = type: cell-based; details: Homo sapiens, one dose 10^-5 M, 48 h
SK-MEL-5 = type: cell-based; details: Homo sapiens, one dose 10^-5 M, 48 h, read-out: % growth
UACC-257 = type: cell-based; details: Homo sapiens, one dose 10^-5 M, 48 h
UACC-62 = type: cell-based; details: Homo sapiens, one dose 10^-5 M, 48 h
IGROV1 = type: cell-based; details: Homo sapiens, IGROV-1, one dose 10^-5 M, 48 h, read-out: % growth
OVCAR-3 = type: cell-based; details: Homo sapiens, one dose 10^-5 M, 48 h
OVCAR-4 = type: cell-based; details: Homo sapiens, one dose 10^-5 M, 48 h
OVCAR-5 = type: cell-based; details: Homo sapiens, one dose 10^-5 M, 48 h
OVCAR-8 = type: cell-based; details: Homo sapiens, one dose 10^-5 M, 48 h
NCI/ADR-RES = type: cell-based; details: Homo sapiens, one dose 10^-5 M, 48 h
SK-OV-3 = type: cell-based; details: Homo sapiens, one dose 10^-5 M, 48 h
786-0 = type: cell-based; details: Homo sapiens, one dose 10^-5 M, 48 h
A498 = type: cell-based; details: Homo sapiens, one dose 10^-5 M, 48 h
ACHN = type: cell-based; details: Homo sapiens, one dose 10^-5 M, 48 h
CAKI-1 = type: cell-based; details: Homo sapiens, CAKI-1, 48 h, one dose 10^-5 M, 48 h
RXF 393 = type: cell-based; details: Homo sapiens, RXF 393, 48 h, one dose 10^-5 M, 48 h, read-out: % growth
SN12C = type: cell-based, human; details: Homo sapiens, one dose 10^-5 M, 48 h
TK-10 = type: cell-based; details: Homo sapiens, one dose 10^-5 M, 48 h
UO-31 = type: cell-based; details: Homo sapiens, UO-31, 48 h, one dose 10^-5 M, 48 h
PC-3 = type: cell-based; details: Homo sapiens, one dose 10^-5 M, 48 h
DU-145 = type: cell-based; details: Homo sapiens, one dose 10^-5 M, 48 h
MCF7 = type: cell-based; details: Homo sapiens, one dose 10^-5 M, 48 h, read-out: % growth
MDA-MB-231/ATCC = type: cell-based; details: Homo sapiens, one dose 10^-5 M, 48 h
HS 578T = type: cell-based; details: Homo sapiens; one dose 10^-5 M, 48 h; HS 578T; read-out: % growth
BT-549 = type: cell-based; details: Homo sapiens, one dose 10^-5 M, 48 h
T-47D = type: cell-based; details: Homo sapiens, T47D, one dose 10^-5 M, 48 h, read-out: % growth
MDA-MB-468 = type: cell-based; details: Homo sapiens, one dose 10^-5 M, 48 h
[1] = system: full NCI 60 cell lines panel; details: for activity at 10 µM: Homo sapiens, 60 cell, 48 h, read-out: Mean % growth

Q: Which % cell growth at 10 µM (CCRF-CEM) does the source give for `N=C(NN=Cc1ccc(Cl)cc1)c1c(N)nc(S)nc1-c1ccc(Cl)cc1Cl` [Compound 4n, 4-Amino-N'-[(4-chlorophenyl)methylene]-6–(2,4-dichlorophenyl)-2-mercapto pyrimidine-5-carboximidohydrazide] here?
A: 106%

Q: And the % growth at 10 µM (HL-60(TB))?
A: 108%

Q: And the % growth at 10 µM (K-562)?
A: 89.9%

Q: What about the activity at 10 µM (MOLT-4) of the same compound?
A: 92.4%

Q: And the % growth at 10 µM (RPMI-8226)?
A: 102%

Q: And the percent cell growth at 10 µM (SR)?
A: 90.6%

Q: What about the % growth at 10 µM (A549/ATCC) of the same compound?
A: 95.8%

Q: And the % cell growth at 10 µM (EKVX)?
A: 108%

Q: And the % growth at 10 µM (HOP-62)?
A: 83.1%

Q: What about the % growth at 10 µM (HOP-92) of the same compound?
A: 64.2%

Q: And the % growth at 10 µM (NCI-H226)?
A: 86.3%

Q: And the activity at 10 µM (NCI-H23)?
A: 92.9%

Q: What about the activity at 10 µM (NCI-H460) of the same compound?
A: 102%

Q: And the % growth at 10 µM (NCI-H522)?
A: 90.6%

Q: What about the % growth at 10 µM (COLO 205) of the same compound?
A: 114%

Q: What about the % growth at 10 µM (HCC-2998) of the same compound?
A: 101%

Q: And the activity at 10 µM (HCT-116)?
A: 94.6%

Q: What about the activity at 10 µM (HCT-15) of the same compound?
A: 101%

Q: What about the % growth at 10 µM (HT29) of the same compound?
A: 121%

Q: And the % growth at 10 µM (KM12)?
A: 108%

Q: And the % growth at 10 µM (SW-620)?
A: 106%

Q: And the activity at 10 µM (SF-268)?
A: 100%

Q: What about the % cell growth at 10 µM (SF-295) of the same compound?
A: 73.4%

Q: And the % growth at 10 µM (SF-539)?
A: 87.3%

Q: What about the activity at 10 µM (SNB-19) of the same compound?
A: 90.9%

Q: What about the % growth at 10 µM (U251) of the same compound?
A: 70.5%

Q: And the activity at 10 µM (LOX IMVI)?
A: 95.4%

Q: What about the % growth at 10 µM (MALME-3M) of the same compound?
A: 81.6%

Q: What about the % growth at 10 µM (M14) of the same compound?
A: 95.6%

Q: And the activity at 10 µM (MDA-MB-435)?
A: 104%

Q: And the % growth at 10 µM (SK-MEL-2)?
A: 108%

Q: And the % cell growth at 10 µM (SK-MEL-28)?
A: 106%

Q: What about the activity at 10 µM (SK-MEL-5) of the same compound?
A: 103%

Q: And the percent cell growth at 10 µM (UACC-257)?
A: 108%

Q: What about the % growth at 10 µM (UACC-62) of the same compound?
A: 90.9%

Q: And the activity at 10 µM (IGROV1)?
A: 97%

Q: And the % growth at 10 µM (OVCAR-3)?
A: 110%

Q: And the % growth at 10 µM (OVCAR-4)?
A: 107%

Q: What about the percent cell growth at 10 µM (OVCAR-5) of the same compound?
A: 105%

Q: And the % growth of cells at 10 µM (OVCAR-8)?
A: 91.2%

Q: What about the cell growth percent at 10 µM (NCI/ADR-RES) of the same compound?
A: 105%

Q: What about the % growth at 10 µM (SK-OV-3) of the same compound?
A: 92.2%

Q: What about the % growth at 10 µM (786-0) of the same compound?
A: 78%

Q: And the % growth at 10 µM (A498)?
A: 122%

Q: What about the % growth at 10 µM (ACHN) of the same compound?
A: 83.7%

Q: What about the % growth at 10 µM (CAKI-1) of the same compound?
A: 98.6%

Q: What about the activity at 10 µM (RXF 393) of the same compound?
A: 84.7%

Q: And the % growth at 10 µM (SN12C)?
A: 90.1%

Q: And the % cell growth at 10 µM (TK-10)?
A: 143%

Q: And the % cell growth at 10 µM (UO-31)?
A: 93.2%

Q: And the percent cell growth at 10 µM (PC-3)?
A: 102%

Q: And the % growth at 10 µM (DU-145)?
A: 109%

Q: And the activity at 10 µM (MCF7)?
A: 83.6%

Q: And the % growth at 10 µM (MDA-MB-231/ATCC)?
A: 82.5%

Q: What about the activity at 10 µM (HS 578T) of the same compound?
A: 102%

Q: And the % cell growth at 10 µM (BT-549)?
A: 92.6%

Q: What about the activity at 10 µM (T-47D) of the same compound?
A: 92.6%

Q: What about the percent cell growth at 10 µM (MDA-MB-468) of the same compound?
A: 96.1%

Q: What about the activity at 10 µM [1] of the same compound?
A: 97.2%

Q: What about the “activity on all 60 cancer cell lines tested (in words)” value ([1]; one dose) of the same compound?
A: weak activity

Q: What does the source list for `N=C(NN=Cc1ccc([N+](=O)[O-])cc1)c1c(N)nc(S)nc1-c1ccc(Cl)cc1Cl` [Compound 4o, 4-amino-6–(2,4-dichlorophenyl)-2-mercapto-N'-[(4-nitrophenyl)methylene] pyrimidine-5-carboximidohydrazide]?
A: % cell growth at 10 µM (CCRF-CEM): 106%; % growth at 10 µM (HL-60(TB)): 103%; % growth at 10 µM (K-562): 95%; activity at 10 µM (MOLT-4): 94%; % growth at 10 µM (RPMI-8226): 97.3%; percent cell growth at 10 µM (SR): 76.8%; % growth at 10 µM (A549/ATCC): 101%; % cell growth at 10 µM (EKVX): 98.9%; % growth at 10 µM (HOP-62): 57%; % growth at 10 µM (HOP-92): 2.04%; % growth at 10 µM (NCI-H226): 82.1%; activity at 10 µM (NCI-H23): 90.2%; activity at 10 µM (NCI-H460): 114%; % growth at 10 µM (NCI-H522): 78.5%; % growth at 10 µM (COLO 205): 115%; % growth at 10 µM (HCC-2998): 106%; activity at 10 µM (HCT-116): 85.2%; activity at 10 µM (HCT-15): 103%; % growth at 10 µM (HT29): 116%; % growth at 10 µM (KM12): 108%; % growth at 10 µM (SW-620): 108%; activity at 10 µM (SF-268): 94.9%; % cell growth at 10 µM (SF-295): 52.4%; % growth at 10 µM (SF-539): 74.7%; activity at 10 µM (SNB-19): 74.9%; % growth at 10 µM (U251): 67%; activity at 10 µM (LOX IMVI): 96.5%; % growth at 10 µM (MALME-3M): 73%; % growth at 10 µM (M14): 102%; activity at 10 µM (MDA-MB-435): 108%; % growth at 10 µM (SK-MEL-2): 93.4%; % cell growth at 10 µM (SK-MEL-28): 113%; activity at 10 µM (SK-MEL-5): 104%; percent cell growth at 10 µM (UACC-257): 104%; % growth at 10 µM (UACC-62): 84.7%; activity at 10 µM (IGROV1): 94.9%; % growth at 10 µM (OVCAR-3): 110%; % growth at 10 µM (OVCAR-4): 111%; percent cell growth at 10 µM (OVCAR-5): 111%; % growth of cells at 10 µM (OVCAR-8): 98.4%; cell growth percent at 10 µM (NCI/ADR-RES): 105%; % growth at 10 µM (SK-OV-3): 89.1%; % growth at 10 µM (786-0): 54.1%; % growth at 10 µM (A498): 160%; % growth at 10 µM (ACHN): 88.8%; % growth at 10 µM (CAKI-1): 78.8%; activity at 10 µM (RXF 393): 73%; % growth at 10 µM (SN12C): 96.1%; % cell growth at 10 µM (TK-10): 142%; % cell growth at 10 µM (UO-31): 98.3%; percent cell growth at 10 µM (PC-3): 96.8%; % growth at 10 µM (DU-145): 115%; activity at 10 µM (MCF7): 88.2%; % growth at 10 µM (MDA-MB-231/ATCC): 77.5%; activity at 10 µM (HS 578T): 87.1%; % cell growth at 10 µM (BT-549): 75.7%; activity at 10 µM (T-47D): 95.3%; percent cell growth at 10 µM (MDA-MB-468): 90.8%; activity at 10 µM [1]: 93.5%
